Source: paper PMC9095593, “On Methods for the Measurement of the Apelin Receptor Ligand Apelin” (Scientific Reports, 2022)
Like-named read-outs stand apart in the source and are kept apart here. Where no end group is shown, it is not given here.

Key:
[1] = Influence of cooling on ice and P100 protease inhibitor cocktail on peptide stability; details: HPLC-MS/MS, measured in triple; for Effect of cooling with ice on stability: spiked on K2EDTA and P100 plasma, measured immediately and after 30 and 60 min on ice or at room temperature; for Influence of the P100 tube (protease inhibitor cocktail) on stability: P100 vs K2EDTA, immediately, 30 and 60 min on ice or at room temperature
Description: The samples were measured immediately, and after 30 and 60 min on ice or at room temperature (Fig. 6). All samples were measured in triple.
The samples were measured immediately, or after 30 and 60 min on ice or at room temperature.

[2] = Stability of spiked synthetic peptides in plasma according to the preanalytical condition (immediately vs 60 min at room temperature); details: HPLC-MS/MS; for Degradation at the immediate measurement in non-acidified conditions: non-acidified plasma, measured immediately after spiking; for Degradation after one hour at room temperature: spiked synthetic peptide; for Appearance of apelin-pyr-13 after spiking synthetic apelin-13: after 60 min
Description: We aimed to minimalize degradation after sampling with a preanalytical protocol summarized in Fig. 3, including immediate cooling and rapid processing of samples. […] However, acidification can be applied only after separation by centrifugation of whole blood into a plasma and a cell compartment, because acidification of whole blood would lead to hemolysis and coagulation, rendering the blood samples unsuitable for further measurements. Therefore, we used protease inhibitor cocktail-containing K2EDTA-coated P100 blood tubes and a mechanical plasma separator (366422 BD Biosciences, San Jose, CA, USA)[19]. The aim of the protease inhibitor cocktail is to inactivate proteolytic degradation by enzymes present in whole blood; the mechanical separator prevent contact with cell-bound enzymes, both theoretically limiting enzymatic degradation of apelin during the several minutes between blood collection in the tube and completed plasma separation and acidification.
Figure 3 Overview of preanalytical conditions. Samples were immediately cooled on ice and processed within 1 h. Both standard K2EDTA tubes and P100 prechilled tubes containing a protease inhibitor cocktail and mechanical separator were used. The standard K2EDTA was centrifuged for 10 min 1300 × g at 4 °C, while the P100 tube was centrifuged for 20 min 2500 × g at 4 °C, according to the manufacturers’ instructions. After separation, plasma was untreated or acidified to either pH 2.5 or 4.5 by adding the plasma to low protein-binding tubes pre-filled with either phosphoric acid or formic acid. The plasma samples were stored directly at − 20 °C and transferred within 4 h at − 80 °C.
Spiking of individual peptides was performed on plasma collected in K2EDTA tubes, stored either non-acidified, or acidified to pH 4.5 or pH 2.5 and on plasma collected in P100 tubes, stored either non-acidified, or acidified to pH 4.5 and pH 2.5. The samples were measured both immediately and after 60 min at room temperature, each sample was measured 3 times.

[3] = cited from earlier work
Description: However, acidification can be appl ...

Kallikrein = details: cited from earlier work
Description: (§1) Table 1 Enzymatic processing of apelin. | column: Conversion

Prolyl carboxypeptidase = details: cited from earlier work
Description: as §1

Furin (PCSK3) = details: cited from earlier work
Description: as §1

[4] = test system: G-protein-coupled apelin receptor (AR); parameters: method as in PMID 23872001, PMID 18272843, PMID 29357134; details: cited from earlier work
Description: Apelin is expressed as a 77–amino acid precursor, and the C-terminal 17 residues are completely conserved in mammalians. Enzymatic processing (overviewed in Table 1) results in several active C-terminal fragments named apelin-n, specifying that a given isoform has “n” amino acids, all sharing the same 12 C-terminal residues that contain the receptor-binding site (Fig. 1).

[5] = previously described plasma acidification step to pH 4.5
[6] = K2EDTA plasma acidified to pH 2.5, immediately and after 60 min at room temperature, measured 3 times
[7] = K2EDTA plasma acidified to pH 4.5, immediately and after 60 min at room temperature, measured 3 times
[8] = K2EDTA plasma, non-acidified, measured immediately and after 60 min at room temperature, each sample measured 3 times
[9] = P100 (protease inhibitor cocktail) plasma, non-acidified, immediately and after 60 min at room temperature, measured 3 times
[10] = P100 plasma acidified to pH 2.5, immediately and after 60 min at room temperature, measured 3 times
[11] = P100 plasma acidified to pH 4.5, immediately and after 60 min at room temperature, measured 3 times

Compound	Effect of cooling with ice on stability [1]	Degradation at the immediate measurement in non-acidified conditions [2]	Stability in plasma acidified to pH 4.5 [3, 5]	Influence of the P100 tube (protease inhibitor cocktail) on stability [1]	Degradation after one hour at room temperature [2, 6]	Degradation after one hour at room temperature [2, 7]	Degradation after one hour at room temperature [2, 8]	Degradation after one hour at room temperature [2, 9]	Degradation after one hour at room temperature [2, 10]	Degradation after one hour at room temperature [2, 11]	further results
CSCC[C@H](NC(=O)[C@@H]1CCCN1C(=O)CNC(=O)[C@H](CCCCN)NC(=O)[C@H](Cc1c[nH]cn1)NC(=O)[C@H](CO)NC(=O)[C@H](CC(C)C)NC(=O)[C@H](CCCNC(=N)N)NC(=O)[C@@H]1CCCN1C(=O)[C@@H](N)CCCNC(=N)N)C(=O)N1CCC[C@H]1C(=O)N[C@@H](Cc1ccccc1)C(=O)O [Apelin-12]	cooling with ice increases stability	immediate degradation									Storage pH giving the best stability in plasma ([2]; plasma non-acidified, pH 4.5 or pH 2.5, 60 min at room temperature): most stable at pH 2.5
CSCC[C@H](NC(=O)[C@@H]1CCCN1C(=O)CNC(=O)[C@H](CCCCN)NC(=O)[C@H](Cc1cnc[nH]1)NC(=O)[C@H](CO)NC(=O)[C@H](CC(C)C)NC(=O)[C@H](CCCNC(=N)N)NC(=O)[C@@H]1CCCN1C(=O)[C@H](CCCNC(=N)N)NC(=O)[C@@H](N)CCC(N)=O)C(=O)N1CCC[C@H]1C(=O)N[C@@H](Cc1ccccc1)C(=O)O [Apelin-13]	cooling with ice increases stability	immediate degradation	provide stability	small added value	minor degradation	minor degradation	rapid degradation	rapid degradation	minor degradation	minor degradation	Appearance of apelin-pyr-13 after spiking synthetic apelin-13 ([2]; K2EDTA plasma non-acidified): minimal; Appearance of apelin-pyr-13 after spiking synthetic apelin-13 ([2]; K2EDTA plasma pH 2.5): ~25%; Appearance of apelin-pyr-13 after spiking synthetic apelin-13 ([2]; K2EDTA plasma pH 4.5): ~3 ×
CSCC[C@H](NC(=O)[C@@H]1CCCN1C(=O)CNC(=O)[C@H](CCCCN)NC(=O)[C@H](Cc1cnc[nH]1)NC(=O)[C@H](CO)NC(=O)[C@H](CC(C)C)NC(=O)[C@H](CCCNC(=N)N)NC(=O)[C@@H]1CCCN1C(=O)[C@H](CCCNC(=N)N)NC(=O)[C@H](CCC(N)=O)NC(=O)[C@H](CCCNC(=N)N)NC(=O)[C@H](CCCNC(=N)N)NC(=O)[C@H](Cc1ccccc1)NC(=O)[C@@H](N)CCCCN)C(=O)N1CCC[C@H]1C(=O)N[C@@H](Cc1ccccc1)C(=O)O [Apelin-17]											Degradation after one hour at room temperature (pH 2.5): minor degradation; Degradation after one hour at room temperature (pH 4.5): minor degradation; Stability in plasma acidified to pH 4.5 ([3]; pH 4.5): provide stability; Cleavage by kallikrein (Kallikrein): Cleaves the 3N-terminal amino acids of apelin-17; Cleavage by prolyl carboxypeptidase (Prolyl carboxypeptidase): Cleaves apelin 36, 17 and pyr-apelin 13
Apelin-36: synthetic apelin isoform of 36 amino acids, purchased from CPC Scientific / Phoenix Pharmaceuticals (LVQPRGSRNGPGPWQGGRRKFRRQRPRLSHKGPMPF; Apelin-36; UniProt Q9ULZ1 42-77, looked up)	cooling with ice increases stability		provide stability	negative influence	limited degradation	limited degradation	limited degradation	higher degradation	limited degradation	higher degradation	Conversion by furin (PCSK3) (Furin (PCSK3)): directly to apelin 13; Cleavage by prolyl carboxypeptidase (Prolyl carboxypeptidase; similar to ACE-2 effect): Cleaves apelin 36, 17 and pyr-apelin 13; Activation of the apelin receptor (AR) [4]: can activate the AR
NGPGPWQGGRRKFRRQRPRLSHKGPMPF [Apelin-28]											Influence of pH on stability in K2EDTA plasma ([2]; K2EDTA plasma non-acidified vs pH 4.5 vs pH 2.5, 60 min at room temperature): slightly better stability in K2EDTA plasma at pH 4.5 and pH 2.5 than in non-acidified plasma
